Reference: patent US4404230A, “4-Hydroxy-1,2-Benzisothiazol-3(2H)-one-1,1-dioxides and salts thereof” (priority 1980, dated 1983)

Legend:
taste testers [1] = test: Determination of the threshold concentration (sweet taste); assay type: in vivo
Procedure: Aqueous solutions having concentrations of 1:12,500, 1:25,000, 1:50,000, and 1:100,000 were prepared of test compounds A, B and C and of comparison compounds X, Y and Z, and each was evaluated at 5 taste testers according to the following scoring system: Very sweet (=3 points), medium sweet (=2 points), weakly sweet (=1 point), and not sweet (=0 point). The tests were carried out as described by H. G. Schutz and F. J. Pilgrim in Food Research 22, 206 (1957). The dilution perceptible as sweet was defined as having the concentration at which the average value of the evaluation points reached 1.0 or more.

mice = test: Ability of mice to hold themselves in rotating cylinders (muscle relaxing and/or ataxic effect); assay type: in vivo, Chbb:NMRI-mice; conditions: 400 mg/kg p.o.; for Animals which fell out: N = 10
Procedure: In analogy to the method described by Young and Lewis [Science 105, 368 (1947)], 10 female Chbb:NMRI-mice (SPF) having a body weight of 20-26 gm were tested to determine whether they were able to hold themselves in rotating cylinders after oral administration of 400 mg/kg of substance in aqua dist. The measurements were carried out 30-60, 90-120, 210-240 and 270-300 minutes after administration.

rats = test: Effect on choleresis in rats; assay type: in vivo, Chbb:THOM-rats
Procedure: A cannula was tied to the ductus choledochus of anesthetized, fasted male Chbb:THOM-rats (SPF) having a body weight of 180-220 gm, and the rate of flow of bile liquid was registered via a drop counter. 100 or 200 mg/kg of substance B in aqua dist. solution were administered intraduodenally to each of 10 animals. A control group received only the solvent. The number of the drops received within 1 hour before the treatment was compared with the number of the drops received within 1-5 hours after treatment.
In Table 10 the average number of drops 1-5 hours after treatment is shown in percent, compared with the values before treatment.

thrombocyte aggregation = test: Effect on thrombocyte aggregation induced by collagen; assay type: cell-based; conditions: 1×10^-4 mol/liter, collagen-induced
Procedure: The thrombocyte aggregation was measured according to Born and Cross [J. Physiol. 170, 397 (1964)] in platelet-rich plasma obtained by centrifuging citrate blood. The change in the maximum aggregation rate in % compared with a control, and the percent change in the "optical density" were the measured parameters. The aggregation was induced by collagen.

taste testers [2] = test: Determination of the taste quality; assay type: in vivo
Procedure: The tests were performed in analogy to the method of DuBois, G. A. Crosby, R. A. Stephanson and R. E. Wingard Jr., J. Agric. […] The test compounds were used as aqueous solutions at a concentration which corresponds to an about 5% saccharose solution. As comparison compound saccharose was used. The tests were carried out under identical conditions. Only the characterization of the taste was evaluated, because the intensity was already determined in the preceding experiments. The following criteria were determined by each tester: Percentage sweet to percentage bitter to percentage another taste quality. Furthermore, the presence or absence of an after taste of the individual test compounds was determined. Each substance was tested twice with regard to five different determinations.

[3] = Determination of water-solubility; assay type: physicochemical
taste testers [4] = test: Determination of the relative sweetening power in comparison to saccharose; assay type: in vivo; conditions: compared with 3% aqueous solution of saccharose
Description: The relative sweetening power (often also defined as degree of sweetness) of sweetening agents in comparison with saccharose (cane sugar) varies considerably with concentration. […] Therefore, for the determination of the relative sweetening power of the test compounds a 3% aqueous solution of saccharose was always used for comparison.

[5] = test system: Trychophyton mentagrophytes ATCC 9129; test: Fungistasis, serial dilution test; assay type: cell-based; conditions: 320 μg/ml
Procedure: (§1) Substance B was tested with regard to its bacteria- and fungi-inhibiting effect by the serial dilution test and agar diffusion test.

[6] = test system: Candida albicans ATCC 10231; test: Fungistasis, serial dilution test; assay type: cell-based; conditions: 320 μg/ml
Procedure: as §1

Aspergillus niger = test: Fungistasis, serial dilution test; assay type: cell-based; conditions: 320 μg/ml
Procedure: as §1

[7] = test system: Salmonella typhimurium TA 98, TA 100, TA 1535, TA 1537 and TA 1538; test: Test for mutagenic effects (AMES-system), all strains together; assay type: cell-based
Procedure: Compound B was tested according to the AMES-system [Mutation Research 31, 347-364 (1975)] for mutagenic properties. In order to show the whole spectrum of induced molecular DNA-damage (base substitutions, frame-shift mutations, deletions) the auxotrophic bacterial strains Salmonella typhimurium TA 98, TA 100, TA 1535, TA 1537 and TA 1538 were used as genetic indicators.
The tests for all microorganisms were carried out such that the effect of the test compound on a microsomal enzyme system together with the corresponding co-factors could be tested, and furthermore to determine the effect on enzyme induction. The tests were performed without an activating system and in the presence of an activating system. For the in-vitro-activation S-9 supernatants (fractions of the endoplasmatic reticulum) of normal, i.e. not pretreated rats and of rats induced by aroclor 1254 (500 mg/kg) wer used. For the S-9 induced fraction, 3 different concentrations were tested.
Compound B was tested at concentrations of 0.25, 2.5, 5 and 10 mg/plate.

Structure (SMILES): O=C1NS(=O)(=O)c2cccc(O)c21.[Na]
- Average value of evaluation points (taste testers [1]; concentration 1:25000): 2.6 points
- Average value of evaluation points (taste testers [1]; concentration 1:50000): 1.2 points
- Average value of evaluation points (taste testers [1]; concentration 1:100000): 0.0 points
- effect on holding ability of mice (in words) (mice): does not affect the holding ability of mice
- muscle relaxing or coordination inhibiting effect (in words) (mice): no muscle relaxing or coordination inhibiting effect
- Animals which fell out (mice; 30-60 min): 2
- Animals which fell out (mice; 90-120 min): 2
- Animals which fell out (mice; 210-240 min): 1
- Animals which fell out (mice; 270-300 min): 0
- Choleresis in %, compared with the values before treatment (rats; 100 mg/kg i.d., 1 hour): 97%
- Choleresis, average number of drops (rats; 100 mg/kg i.d., 1 hour): 53.3 drops/ hr
- Choleresis in %, compared with the values before treatment (rats; 100 mg/kg i.d., 2 hours): 94%
- Choleresis, average number of drops (rats; 100 mg/kg i.d., 2 hours): 51.7 drops/ hr
- Choleresis in %, compared with the values before treatment (rats; 100 mg/kg i.d., 3 hours): 92%
- Choleresis, average number of drops (rats; 100 mg/kg i.d., 3 hours): 50.7 drops/ hr
- Choleresis in %, compared with the values before treatment (rats; 100 mg/kg i.d., 4 hours): 91%
- Choleresis, average number of drops (rats; 100 mg/kg i.d., 4 hours): 49.9 drops/ hr
- Choleresis in %, compared with the values before treatment (rats; 100 mg/kg i.d., 5 hours): 90%
- Choleresis, average number of drops (rats; 100 mg/kg i.d., 5 hours): 49.5 drops/ hr
- Choleresis in %, compared with the values before treatment (rats; 200 mg/kg i.d., 1 hour): 94%
- Choleresis, average number of drops (rats; 200 mg/kg i.d., 1 hour): 44.1 drops/ hr
- Choleresis in %, compared with the values before treatment (rats; 200 mg/kg i.d., 2 hours): 92%
- Choleresis, average number of drops (rats; 200 mg/kg i.d., 2 hours): 43.1 drops/ hr
- Choleresis in %, compared with the values before treatment (rats; 200 mg/kg i.d., 3 hours): 92%
- Choleresis, average number of drops (rats; 200 mg/kg i.d., 3 hours): 43.1 drops/ hr
- Choleresis in %, compared with the values before treatment (rats; 200 mg/kg i.d., 4 hours): 92%
- Choleresis, average number of drops (rats; 200 mg/kg i.d., 4 hours): 43.5 drops/ hr
- Choleresis in %, compared with the values before treatment (rats; 200 mg/kg i.d., 5 hours): 94%
- Choleresis, average number of drops (rats; 200 mg/kg i.d., 5 hours): 44.4 drops/ hr
- effect on choleresis (in words) (rats; 100 and 200 mg/kg i.d.): does not show any intraduodenal effects on choleresis in rats
- effect on thrombocyte aggregation (in words) (thrombocyte aggregation): does not show any effect on thrombocyte aggregation induced by collagen
- purity of the taste (taste testers [2]): 94-96%
- After taste (taste testers [2]; 1:10000, 10 determinations): 5
- Percentage bitter (taste testers [2]; 1:10000, 10 determinations): 2%
- Percentage other taste (taste testers [2]; 1:10000, 10 determinations): 2%
- Percentage sweet (taste testers [2]; 1:10000, 10 determinations): 96%
- solubility [3]: > 1 gm/10 ml of water
- water-solubility (in words) [3]: easily soluble in water
- Relative sweetening power (Saccharose = 1) (taste testers [4]): 210
- inhibiting effect [5]: did not show any inhibiting effect
- inhibiting effect [6]: did not show any inhibiting effect
- inhibiting effect (Aspergillus niger): did not show any inhibiting effect
- effect on enzyme induction and the activating fraction upon the reversion rate [7]: No effect on enzyme induction and the activating fraction upon the reversion rate was detected
- mutagenicity, overall [7]: not mutagenic
- colonies counted on the test plates ([7]; each test strain): showed the normal spontaneous range for each test strain
